Laboratory results as given in patent US12180172B1, “[3-(4-Methoxyphenyl)-1,2,4-oxadiazol-5-yl]methanol as an antitumor and antimicrobial compound” (KING FAISAL UNIVERSITY, priority 2023, dated 2024).

Key:
Format in all cases: cell-based
[1] = system: human prostate cancer cells (PC3); experiment: Cytotoxicity by SRB assay, PC3; conditions: 0.01 μM to 100 μM for 72 h
Experimental: (§1) The human prostate cancer cells (PC3) and human osteosarcoma cells (MG-63) were obtained from Nawah Scientific Inc. (Mokatam, Cairo, Egypt) and cultured in DMEM (Dulbecco's modified eagle's medium), Gibco, USA, supplemented with fetal bovine serum (FBS) at a concentration of 10% and 100 U/mL of penicillin and streptomycin (PS). The Cells were incubated at 37° C. in a humidified environment that contained 5% CO2. Cells were seeded in 96-well plates as aliquots of 100 μL cell suspension and incubated in a complete media for 24 h. afterward, cells were treated with [3-(4-methoxyphenyl)-1,2,4-oxadiazol-5-yl]methanol at diverse concentrations ranging from 0.01 μM to 100 μM for 72 h. Then, cells were fixed at 4° C. for one hour with 150 μL of 10% trichloroacetic acid (TCA). After washing the cells five times with distilled water, 70 μL of sulforhodamine (SRB) solution (0.4% w/v) was added and incubated for 10 min at room temperature in a dark place. […] Then, 150 μL of Tris pH 10.5 (10 mM) was added, and the absorbance was measured at 540 nm using a BMG LABTECH®-FLUOstar Omega microplate reader (Ortenberg, Germany). Half maximal inhibitory concentrations (IC50) values were calculated for each experiment using GraphPad Prism 6 software. […] The inhibition was calculated using the following equation: Inhibition %=100−Average Viability

[2] = system: human osteosarcoma cells (MG-63); experiment: Cytotoxicity by SRB assay, MG-63; conditions: MG-63 cells, 0.01 μM to 100 μM for 72 h
Experimental: as §1

Bacillus cereus = experiment: Agar plate disc-diffusion, Bacillus cereus; conditions: gram positive; disc 10 μL of 10 mg/mL in DMSO, 37° C., 48 h
Experimental: (§2) The antimicrobial properties of the synthesized compounds were studied by the method of agar plate disc-diffusion. Sterilized filter papers (6 mm in diameter) were wetted with 10 μL of a solution of each compound to be tested, containing 10 mg/mL in DMSO, and the discs were allowed to air dry. The discs were then placed onto the surface of agar plates (nutrient agar for bacteria and Sabouraud's dextrose agar for fungi) seeded with the test organism. Each plate contained 15 mL of the agar medium, previously seeded with 0.2 mL of the broth culture of each organism pregrown for 18 h. The plates were incubated at 37° C. for 48 h, and 72 h for fungi. The inhibition zones were measured in mm. Discs impregnated with DMSO were used as a control, and its inhibition zone was subtracted from the tested compound actual inhibition zone.

Staphylococcus aureus = experiment: Agar plate disc-diffusion, Staphylococcus aureus; conditions: gram positive; disc 10 μL of 10 mg/mL in DMSO, 37° C., 48 h
Experimental: as §2

Pseudomonas aeruginosa = experiment: Agar plate disc-diffusion, Pseudomonas aeruginosa; conditions: gram-negative; disc 10 μL of 10 mg/mL in DMSO, 37° C., 48 h
Experimental: as §2

Escherichia coli = experiment: Agar plate disc-diffusion, Escherichia coli; conditions: gram-negative; disc 10 μL of 10 mg/mL in DMSO, 37° C., 48 h
Experimental: as §2

Aspergillus flavus = experiment: Agar plate disc-diffusion, Aspergillus flavus; conditions: fungus; disc 10 μL of 10 mg/mL in DMSO, 72 h
Experimental: as §2

[3] = system: Chrysosporium keratinophilum; experiment: Agar plate disc-diffusion, Chrysosporium keratinophilum; conditions: fungus; disc 10 μL of 10 mg/mL in DMSO, 72 h
Experimental: as §2

SMILES: COc1ccc(-c2noc(CO)n2)cc1 [[3-(4-methoxyphenyl)-1,2,4-oxadiazol-5-yl]methanol]
- antiproliferative activity [1]: excellent antiproliferative activities
- antiproliferative activity [2]: excellent antiproliferative activities
- antibacterial activity (Bacillus cereus): high antimicrobial activities
- antibacterial activity (Staphylococcus aureus): high antimicrobial activities
- antibacterial activity (Pseudomonas aeruginosa): high antimicrobial activities
- antibacterial activity (Escherichia coli): high antimicrobial activities
- antifungal activity (Aspergillus flavus): high antimicrobial activities
- antifungal activity [3]: high antimicrobial activities
